Publication PMC7731314, “Tropinone-Derived Alkaloids as Potent Anticancer Agents: Synthesis, Tyrosinase Inhibition, Mechanism of Action, DFT Calculation, and Molecular Docking Studies” (International Journal of Molecular Sciences, 2020)
Like-named read-outs stand apart in the source and are kept apart here.

Key:
A549 cells = assay type: cell-based, human
Method: (§1) The RPMI 8226 or A549 cells were seeded in 6-well plates in medium containing 10% FBS without or with compound 3a (2.5, 5, 10, 20, or 40 µM). After 24-h and 48-h treatment, the cell cycle analysis was performed by determination of the DNA contents on the basis of PI staining as described previously. Briefly, the cells were harvested, washed with PBS, and fixed overnight with 80% ethanol at −20 °C. After that, the cells were washed with PBS and stained with PI using PI/RNase Staining Buffer (BD Biosciences, BD Pharmingen™, USA) for 30 min in darkness at RT. Next, the stained cells were analyzed using FACS Calibur. The intensity of PI fluorescence of individual nuclei was determined and at least 10 000 events were measured within an acquisition rate >60 events/s. The FACS data were analyzed using Cell Quest Pro Version 6.0 (BD Biosciences, San Jose, CA, USA). for the Macintosh operating system. The data were analyzed to determine the percentage of cells at the sub-G1 phase (apoptotic cells) and each phase of the cell cycle (G1, S, and G2/M).

RPMI 8226 cells = assay type: cell-based, human
Method: as §1

CN1C2CCC1CC(=NNc1nc(-c3ccc(I)cc3)cs1)C2 [Compound 3a, 4-(4-Iodophenyl)-2-(2-(8-methyl-8-azabicyclo[3.2.1]octan-3-ylidene)hydrazinyl)thiazole]
Cell cycle distribution G0/G1 (A549 cells; A549, 2.5 µM, 24 h): 64.49±1.89 % of cells | Cell cycle distribution G2/M (A549 cells; A549, 2.5 µM, 24 h): 14.68±2.11 % of cells | Cell cycle distribution S (A549 cells; A549, 2.5 µM, 24 h): 12.39±2.34 % of cells | Cell cycle distribution sub-G1 (A549 cells; A549, 2.5 µM, 24 h): 8.81±3.73 % of cells | Cell cycle distribution G0/G1 (A549 cells; A549, 2.5 µM, 48 h): 73.22±1.97 % of cells | Cell cycle distribution G2/M (A549 cells; A549, 2.5 µM, 48 h): 8.91±2.22 % of cells | Cell cycle distribution S (A549 cells; A549, 2.5 µM, 48 h): 6.07±1.54 % of cells | Cell cycle distribution sub-G1 (A549 cells; A549, 2.5 µM, 48 h): 11.98±3.62 % of cells | Cell cycle distribution G0/G1 (A549 cells; A549, 5 µM, 24 h): 65.90±2.36 % of cells | Cell cycle distribution G2/M (A549 cells; A549, 5 µM, 24 h): 13.62±2.25 % of cells | Cell cycle distribution S (A549 cells; A549, 5 µM, 24 h): 12.18±2.45 % of cells | Cell cycle distribution sub-G1 (A549 cells; A549, 5 µM, 24 h): 8.94±3.39 % of cells | Cell cycle distribution G0/G1 (A549 cells; A549, 5 µM, 48 h): 68.55±8.03 % of cells | Cell cycle distribution G2/M (A549 cells; A549, 5 µM, 48 h): 9.05±1.72 % of cells | Cell cycle distribution S (A549 cells; A549, 5 µM, 48 h): 6.81±2.66 % of cells | Cell cycle distribution sub-G1 (A549 cells; A549, 5 µM, 48 h): 15.74±6.03 % of cells | Cell cycle distribution G0/G1 (A549 cells; A549, 10 µM, 24 h): 66.51±4.46 % of cells | Cell cycle distribution G2/M (A549 cells; A549, 10 µM, 24 h): 11.43±2.88 % of cells | Cell cycle distribution S (A549 cells; A549, 10 µM, 24 h): 9.82±2.73 % of cells | Cell cycle distribution sub-G1 (A549 cells; A549, 10 µM, 24 h): 13.23±7.01 % of cells | Cell cycle distribution G0/G1 (A549 cells; A549, 10 µM, 48 h): 68.54±6.87 % of cells | Cell cycle distribution G2/M (A549 cells; A549, 10 µM, 48 h): 8.44±1.47 % of cells | Cell cycle distribution S (A549 cells; A549, 10 µM, 48 h): 7.07±2.63 % of cells | Cell cycle distribution sub-G1 (A549 cells; A549, 10 µM, 48 h): 16.15±6.33 % of cells | Cell cycle distribution G0/G1 (A549 cells; A549, 20 µM, 24 h): 66.45±9.20 % of cells | Cell cycle distribution G2/M (A549 cells; A549, 20 µM, 24 h): 7.16±2.15 % of cells | Cell cycle distribution S (A549 cells; A549, 20 µM, 24 h): 5.23±2.38 % of cells | Cell cycle distribution sub-G1 (A549 cells; A549, 20 µM, 24 h): 22.36±12.24 % of cells | Cell cycle distribution G0/G1 (A549 cells; A549, 20 µM, 48 h): 63.07±6.59 % of cells | Cell cycle distribution G2/M (A549 cells; A549, 20 µM, 48 h): 5.19±0.93 % of cells | Cell cycle distribution S (A549 cells; A549, 20 µM, 48 h): 4.61±1.21 % of cells | Cell cycle distribution sub-G1 (A549 cells; A549, 20 µM, 48 h): 27.32±6.78 % of cells | Cell cycle distribution G0/G1 (A549 cells; A549, 40 µM, 24 h): 41.03±2.93 % of cells | Cell cycle distribution G2/M (A549 cells; A549, 40 µM, 24 h): 12.87±5.29 % of cells | Cell cycle distribution S (A549 cells; A549, 40 µM, 24 h): 11.34±0.58 % of cells | Cell cycle distribution sub-G1 (A549 cells; A549, 40 µM, 24 h): 35.46±9.33 % of cells | Cell cycle distribution G0/G1 (A549 cells; A549, 40 µM, 48 h): 16.49±3.46 % of cells | Cell cycle distribution G2/M (A549 cells; A549, 40 µM, 48 h): 2.19±0.38 % of cells | Cell cycle distribution S (A549 cells; A549, 40 µM, 48 h): 6.05±0.87 % of cells | Cell cycle distribution sub-G1 (A549 cells; A549, 40 µM, 48 h): 75.27±4.12 % of cells | Cell cycle distribution G0/G1 (RPMI 8226 cells; RPMI 8226, 2.5 µM, 24 h): 41.14±1.03 % of cells | Cell cycle distribution G2 (RPMI 8226 cells; RPMI 8226, 2.5 µM, 24 h): 22.35±1.19 % of cells | Cell cycle distribution S (RPMI 8226 cells; RPMI 8226, 2.5 µM, 24 h): 21.59±1.77 % of cells | Cell cycle distribution Sub-G1 (RPMI 8226 cells; RPMI 8226, 2.5 µM, 24 h): 15.53±2.23 % of cells | Cell cycle distribution G0/G1 (RPMI 8226 cells; RPMI 8226, 2.5 µM, 48 h): 35.8±1.49 % of cells | Cell cycle distribution G2 (RPMI 8226 cells; RPMI 8226, 2.5 µM, 48 h): 16.99±2 % of cells | Cell cycle distribution S (RPMI 8226 cells; RPMI 8226, 2.5 µM, 48 h): 26.22±0.97 % of cells | Cell cycle distribution Sub-G1 (RPMI 8226 cells; RPMI 8226, 2.5 µM, 48 h): 21.49±0.94 % of cells | Cell cycle distribution G0/G1 (RPMI 8226 cells; RPMI 8226, 5 µM, 24 h): 38.23±6.83 % of cells | Cell cycle distribution G2 (RPMI 8226 cells; RPMI 8226, 5 µM, 24 h): 21.31±4.02 % of cells | Cell cycle distribution S (RPMI 8226 cells; RPMI 8226, 5 µM, 24 h): 18.68±2.58 % of cells | Cell cycle distribution Sub-G1 (RPMI 8226 cells; RPMI 8226, 5 µM, 24 h): 21.32±6.2 % of cells | Cell cycle distribution G0/G1 (RPMI 8226 cells; RPMI 8226, 5 µM, 48 h): 40.3±3.15 % of cells | Cell cycle distribution G2 (RPMI 8226 cells; RPMI 8226, 5 µM, 48 h): 15.23±5.04 % of cells | Cell cycle distribution S (RPMI 8226 cells; RPMI 8226, 5 µM, 48 h): 19.12±2.51 % of cells | Cell cycle distribution Sub-G1 (RPMI 8226 cells; RPMI 8226, 5 µM, 48 h): 25.53±7.59 % of cells | Cell cycle distribution G0/G1 (RPMI 8226 cells; RPMI 8226, 10 µM, 24 h): 38.08±9.38 % of cells | Cell cycle distribution G2 (RPMI 8226 cells; RPMI 8226, 10 µM, 24 h): 17.45±2.75 % of cells | Cell cycle distribution S (RPMI 8226 cells; RPMI 8226, 10 µM, 24 h): 21.4±3.5 % of cells | Cell cycle distribution Sub-G1 (RPMI 8226 cells; RPMI 8226, 10 µM, 24 h): 23.53±7.04 % of cells | Cell cycle distribution G0/G1 (RPMI 8226 cells; RPMI 8226, 10 µM, 48 h): 38.5±2.77 % of cells | Cell cycle distribution G2 (RPMI 8226 cells; RPMI 8226, 10 µM, 48 h): 18.78±2.32 % of cells | Cell cycle distribution S (RPMI 8226 cells; RPMI 8226, 10 µM, 48 h): 18.61±4.5 % of cells | Cell cycle distribution Sub-G1 (RPMI 8226 cells; RPMI 8226, 10 µM, 48 h): 28.01±5.09 % of cells | Cell cycle distribution G0/G1 (RPMI 8226 cells; RPMI 8226, 20 µM, 24 h): 42.63±4.03 % of cells | Cell cycle distribution G2 (RPMI 8226 cells; RPMI 8226, 20 µM, 24 h): 15.7±5.79 % of cells | Cell cycle distribution S (RPMI 8226 cells; RPMI 8226, 20 µM, 24 h): 19.83±2.92 % of cells | Cell cycle distribution Sub-G1 (RPMI 8226 cells; RPMI 8226, 20 µM, 24 h): 24.09±2.62 % of cells | Cell cycle distribution G0/G1 (RPMI 8226 cells; RPMI 8226, 20 µM, 48 h): 31.66±10.94 % of cells | Cell cycle distribution G2 (RPMI 8226 cells; RPMI 8226, 20 µM, 48 h): 17.47±1.42 % of cells | Cell cycle distribution S (RPMI 8226 cells; RPMI 8226, 20 µM, 48 h): 20.74±2.14 % of cells | Cell cycle distribution Sub-G1 (RPMI 8226 cells; RPMI 8226, 20 µM, 48 h): 29.68±10.49 % of cells
